Test results as given in US10189863B2, “5,6-dihydro-4H-benzo[b]thieno-[2,3-d]azepine derivatives” (PULMOCIDE LIMITED, priority 2014, dated 2019).

Assays:
RSV B Washington strain = assay: Assessment of RSV induced CPE in HEp2 cells (RSV B Washington strain); type: cell-based; conditions: human respiratory syncytial virus, HEp2 cells; for IC50: HEp-2, 144 h, 1 MOI, 6 days, read-out: RSV B CPE IC50; for inhibition at 1 µg/mL: Inhibition (%) at 1 μg/mL, read-out: RSV B CPE % Inhibition
Description: (§1) Assessment of RSV Induced CPE in HEp2 Cells
(§2) HEp2 cells were seeded (10^3/well/50 μL) in 384-well plates (Catalogue number 353962, BD Falcon, Oxford, UK) in […] containing 2 mM L-glutamine and 1 mM sodium pyruvate one day before infection. RSV A2 strain (#0709161v, NCPV, Public Health England, Wiltshire) or RSV B Washington strain (VR-1580, ATCC, Manassas, Va. 20108) virus solutions were prepared in serum free-DMEM with 2 mM L-glutamine and 1 mM sodium pyruvate, and then added (50 μL/well) to achieve a final virus concentration of 1 MOI. Simultaneously test compounds (0.5 μL DMSO solution) were added to 100 μL of HEp2 cell culture with virus solution to provide a final DMSO solution of 0.5%. Plates were incubated (37° C./5% CO2) for 5 days for studies using RSV A2 strain or 6 days for those using RSV B strain, and then resazurin sodium salt (5 μL of 0.03% solution; Sigma-Aldrich, Dorset, UK) was added to each well and the plate incubated for a further 6 hr (37° C./5% CO2). The fluorescence of each well [545 nm (excitation)/590 nm (emission)] was determined using a multi-scanner (Clariostar: BMG, Buckinghamshire, UK). The percentage inhibition for each well was calculated and the IC50, IC75 and IC90 values were calculated from the concentration-response curve generated for each test compound.

[1] = Cell viability: resazurin assay; type: cell-based, human; conditions: human, HEp2 cells
Description: Cell Viability: Resazurin Assay
HEp2 cells were seeded in 384-well plates (10^3/well/50 μL; BD Falcon Ref 353962) in FBS DMEM (5%, containing 2 mM L-glutamine and 1 mM sodium pyruvate) one day before experimentation. Serum-free DMEM (50 μL) was added to test wells while for control wells the media was removed and sterile water (100 μL) was added. Test compounds (0.5 μL DMSO solution) were added to give a final DMSO concentration of 0.5%. Hep2 cells were incubated with each test compound for 5 days (37° C./5% CO2 in 5% FBS) and then resazurin stock solution (5 μL; 0.03%) was added to each well and the plate incubated for a further 6 hr (37° C./5% CO2). The fluorescence of each well at 545 nm (excitation) and 590 nm (emission) was determined using a multi-scanner (Clariostar: BMG Labtech). The percentage loss of cell viability was calculated for each well relative to vehicle (0.5% DMSO) treatment.
Any apparent increase in cell viability associated with test compound treatment relative to vehicle is consequently tabulated as a negative percentage. Where appropriate, a CC50 value was calculated from the concentration-response curve generated from the concentration-response curve for each test compound.

RSV A2 strain = assay: Assessment of RSV induced CPE in HEp2 cells (RSV A2 strain); type: cell-based; conditions: human respiratory syncytial virus, HEp2 cells; for IC50: HEp-2, 120 h, 1 MOI, 5 days, read-out: RSV A2 CPE IC50; for inhibition at 0.1 µg/mL / inhibition at 0.01 µg/mL: HEp-2; for inhibition at 0.1 µg/mL: Inhibition (%) at 0.1 μg/mL, read-out: RSV A2 CPE % Inhibition; for inhibition at 0.01 µg/mL: Inhibition (%) at 0.01 μg/mL
Description: as §1, §2

SMILES | IC50 (RSV B Washington strain) [nM] | IC50 (RSV A2 strain) [nM] | inhibition at 1 µg/mL (RSV B Washington strain; HEp-2) [%] | CC50 at 5 days [1] [µM] | inhibition at 0.1 µg/mL (RSV A2 strain) [%] | inhibition at 0.1 µg/mL (RSV B Washington strain; HEp-2, Inhibition (%) at 0.1 μg/mL) [%] | inhibition at 0.01 µg/mL (RSV A2 strain) [%]
Cc1ccccc1NC(=O)c1cc2c(s1)-c1ccccc1N(C(=O)c1ccc(NC(=O)c3cc(C)c(C)nc3N3CC4(CCOCC4)C3)cc1)CC2 [Example 42, 6-(4-(5,6-dimethyl-2-(7-oxa-2-azaspiro[3.5]nonan-2-yl)nicotinamido)benzoyl)-N-(o-tolyl)-5,6-dihydro-4H-benzo[b] thieno[2,3-d]azepine-2-carboxamide] | 60.5 | 0.14 | 80 | > 14 | 97 | – | –
Cc1cc(C(=O)Nc2ccc(C(=O)N3CCc4cc(C(=O)Nc5ccccc5F)sc4-c4ccccc43)cc2)c(N2CC3(CCOCC3)C2)nc1C [Example 43, 6-(4-(5,6-dimethyl-2-(7-oxa-2-azaspiro[3.5]nonan-2-yl)nicotinamido)benzoyl)-N-(2-fluorophenyl)-5,6-dihydro-4H-benzo[b]thieno[2,3-d]azepine-2-carboxamide] | 59.4 | 0.12 | 72 | > 14 | 100 | – | –
Cc1cc(C(=O)Nc2ccc(C(=O)N3CCc4cc(C(=O)Nc5c(C)cccc5F)sc4-c4ccccc43)cc2)c(N2CC3(CCOCC3)C2)nc1C [Example 44, 6-(4-(5,6-dimethyl-2-(7-oxa-2-azaspiro[3.5]nonan-2-yl)nicotinamido)benzoyl)-N-(2-fluoro-6-methylphenyl)-5,6-dihydro-4H-benzo[b]thieno[2,3-d]azepine-2-carboxamide] | 16.2 | 0.13 | 76 | > 13.7 | 100 | – | –
Cc1cc(C(=O)Nc2ccc(C(=O)N3CCc4cc(C(=O)Nc5ccc(F)cc5F)sc4-c4ccccc43)cc2)c(N2CC3(CCOCC3)C2)nc1C [Example 45, N-(2,4-difluorophenyl)-6-(4-(5,6-dimethyl-2-(7-oxa-2-azaspiro[3.5]nonan-2-yl)nicotinamido)benzoyl)-5,6-dihydro-4H-benzo[b]thieno[2,3-d]azepine-2-carboxamide] | 84 | 0.11 | 68 | > 13.6 | 100 | – | –
Cc1cc(C(=O)Nc2ccc(C(=O)N3CCc4cc(C(=O)Nc5c(F)cccc5Cl)sc4-c4ccccc43)cc2)c(N2CC3(CCOCC3)C2)nc1C [Example 46, N-(2-chloro-6-fluorophenyl)-6-(4-(5,6-dimethyl-2-(7-oxa-2-azaspiro[3.5]nonan-2-yl)nicotinamido)benzoyl)-5,6-di-hydro-4H-benzo[b]thieno[2,3-d]azepine-2-carboxamide] | 7 | 0.069 | 86 | > 13.3 | 100 | – | –
Cc1cnc(N2CC3(CCOCC3)C2)c(C(=O)Nc2ccc(C(=O)N3CCc4cc(C(=O)Nc5c(F)cccc5C#N)sc4-c4ccccc43)cc2)c1 [Example 51, N-(2-cyano-6-fluorophenyl)-6-(4-(5-methyl-2-(7-oxa-2-azaspiro[3.5]nonan-2-yl)nicotinamido)benzoyl)-5,6-dihydro-4H-benzo[b]thieno[2,3-d]azepine-2-carboxamide] | 10.1 | 1.1 | 99 | > 13.8 | 98 | – | –
COc1cccc(F)c1NC(=O)c1cc2c(s1)-c1ccccc1N(C(=O)c1ccc(NC(=O)c3cc(C)cnc3N3CC4(CCOCC4)C3)cc1)CC2 [Example 53, N-(2-fluoro-6-methoxyphenyl)-6-(4-(5-methyl-2-(7-oxa-2-azaspiro[3.5]nonan-2-yl)nicotinamido)benzoyl)-5,6-di-hydro-4H-benzo[b]thieno[2,3-d]azepine-2-carboxamide] | 14.6 | 0.23 | 96 | > 13.7 | 94 | – | –
Cc1cnc(N2CC3(CCOCC3)C2)c(C(=O)Nc2ccc(C(=O)N3CCc4cc(C(=O)Nc5c(F)cccc5OCCO)sc4-c4ccccc43)cc2)c1 [Example 54, N-(2-fluoro-6-(2-hydroxyethoxy)phenyl)-6-(4-(5-methyl-2-(7-oxa-2-azaspiro[3.5]nonan-2-yl)nicotinamido)benzoyl)-5,6-dihydro-4H-benzo[b]thieno[2,3-d]azepine-2-carboxamide] | 89.8 | 1.5 | 100 | > 13.1 | – | – | 100

Molecules with a lower IC50 (RSV B Washington strain), results first:

IC50 (RSV B Washington strain) [nM] | IC50 (RSV A2 strain) [nM] | SMILES | inhibition at 1 µg/mL (RSV B Washington strain; HEp-2) [%] | CC50 at 5 days [1] [µM] | inhibition at 0.1 µg/mL (RSV A2 strain) [%] | inhibition at 0.1 µg/mL (RSV B Washington strain; HEp-2, Inhibition (%) at 0.1 μg/mL) [%] | inhibition at 0.01 µg/mL (RSV A2 strain) [%]
5.7 | 0.13 | Cc1cnc(N2CC3(CCOCC3)C2)c(C(=O)Nc2ccc(C(=O)N3CCc4cc(C(=O)Nc5c(F)cccc5F)sc4-c4ccccc43)cc2)c1 [Example 47, N-(2,6-difluorophenyl)-6-(4-(5-methyl-2-(7-oxa-2-aza-spiro[3.5]nonan-2-yl)nicotinamido)benzoyl)-5,6-dihydro-4H-benzo[b]thieno[2,3-d]azepine-2-carboxamide] | – | > 13.9 | – | 100 | 100
3.3 | 0.067 | Cc1cnc(N2CC3(CCOCC3)C2)c(C(=O)Nc2ccc(C(=O)N3CCc4cc(C(=O)Nc5c(O)cccc5F)sc4-c4ccccc43)cc2)c1 [Example 52, N-(2-fluoro-6-hydroxyphenyl)-6-(4-(5-methyl-2-(7-oxa-2-azaspiro[3.5]nonan-2-yl)nicotinamido)benzoyl)-5,6-dihydro-4H-benzo[b]thieno[2,3-d]azepine-2-carboxamide] | 100 | > 13.9 | 96 | – | –
1.7 | 0.13 | Cc1ccc(C(=O)Nc2ccc(C(=O)N3CCc4cc(C(=O)Nc5c(F)cc(F)cc5F)sc4-c4ccccc43)cc2)c(N2CC3(CCOCC3)C2)n1 [Example 50, 6-(4-(6-methyl-2-(7-oxa-2-azaspiro[3.5]nonan-2-yl)nicotinamido)benzoyl)-N-(2,4,6-trifluorophenyl)-5,6-dihydro-4H-benzo[b]thieno[2,3-d]azepine-2-carboxamide] | 100 | > 13.6 | 100 | – | –
1.5 | 0.14 | Cc1cnc(N2CC3(CCOCC3)C2)c(C(=O)Nc2ccc(C(=O)N3CCc4cc(C(=O)Nc5c(F)cc(F)cc5F)sc4-c4ccccc43)cc2)c1 [Example 48, 6-(4-(5-methyl-2-(7-oxa-2-azaspiro[3.5]nonan-2-yl)nicotinamido)benzoyl)-N-(2,4,6-trifluorophenyl)-5,6-dihydro-4H-benzo[b]thieno[2,3-d]azepine-2-carboxamide] | 100 | > 13.6 | 100 | – | –
1.3 | 0.13 | Cc1ccc(C(=O)Nc2ccc(C(=O)N3CCc4cc(C(=O)Nc5c(F)cccc5F)sc4-c4ccccc43)cc2)c(N2CC3(CCOCC3)C2)n1 [Example 49, N-(2,6-difluorophenyl)-6-(4-(6-methyl-2-(7-oxa-2-aza-spiro[3.5]nonan-2-yl)nicotinamido)benzoyl)-5,6-dihydro-4H-benzo[b]thieno[2,3-d]azepine-2-carboxamide] | 100 | > 13.9 | 100 | – | –
